PubChem BioAssay (NCI)
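Step 1: Grow cells in 96-well plates. Step 2: Expose to compound for 48 hours at 5 concentrations. Step 3: Interpolate endpoints linearly; if unreached, use highest concentration. The concentration for 50% growth inhibition is given as GI50. TGI is the concentration that stops growth completely.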

What was measured:
Assay in all cases: DTP human tumour cell line panel, 48 h
DU-145 prostate = test system: DU-145 prostate
HOP-92 NSCLC = test system: HOP-92 NSCLC
IGROV1 ovarian = test system: IGROV1 ovarian
NCI-H460 lung = test system: NCI-H460 lung
NCI-H522 lung = test system: NCI-H522 lung
OVCAR-3 ovarian = test system: OVCAR-3 ovarian
OVCAR-5 ovarian = test system: OVCAR-5 ovarian
PC-3 prostate = test system: PC-3 prostate
SNB-75 CNS = test system: SNB-75 CNS
UO-31 renal = test system: UO-31 renal

SMILES	GI50 (DU-145 prostate)	TGI (DU-145 prostate)	GI50 (HOP-92 NSCLC)	TGI (HOP-92 NSCLC)	GI50 (IGROV1 ovarian)	TGI (IGROV1 ovarian)	GI50 (NCI-H460 lung)	TGI (NCI-H460 lung)	GI50 (NCI-H522 lung)	TGI (NCI-H522 lung)	GI50 (OVCAR-3 ovarian)	TGI (OVCAR-3 ovarian)	GI50 (OVCAR-5 ovarian)	TGI (OVCAR-5 ovarian)	GI50 (PC-3 prostate)	TGI (PC-3 prostate)	GI50 (SNB-75 CNS)	TGI (SNB-75 CNS)	GI50 (UO-31 renal)	TGI (UO-31 renal)
Cc1cc2nc3c4cc(Cl)ccc4n(CCN(C)C)c3nc2cc1C	2.14 µM	4.62 µM	0.498 µM	3.61 µM	1.35 µM	3.86 µM	1.34 µM	2.85 µM	1.41 µM	3.27 µM	1.92 µM	4.76 µM	2 µM	5.2 µM	1.65 µM	4.74 µM	0.738 µM	6.24 µM	0.389 µM	3.35 µM
Cc1ccc2c(C(C[N+](=O)[O-])c3cccs3)c(-c3ccccc3)[nH]c2c1 (centres undefined)	3.7 µM	16.9 µM	4.03 µM	9.24 µM	1.12 µM	5.81 µM	1.38 µM	6.14 µM	1.23 µM	8.03 µM	1.24 µM	4.75 µM	4.07 µM	11.1 µM	2.46 µM	16.1 µM	0.638 µM	2.49 µM	2.03 µM	6.68 µM
O=C(Nc1nc2ccccc2s1)OCC(F)(F)F	> 100 µM	> 100 µM	41.2 µM	> 100 µM	> 100 µM	> 100 µM	> 100 µM	> 100 µM	> 100 µM	> 100 µM	> 100 µM	> 100 µM	> 100 µM	> 100 µM	> 100 µM	> 100 µM	> 100 µM	> 100 µM	45.6 µM	> 100 µM
CSc1nc(SC)c2c(CN=[N+]=[N-])c(Br)n(Cc3ccccc3)c2n1		> 100 µM		83.8 µM		> 100 µM		> 100 µM		> 100 µM		> 100 µM		> 100 µM		> 100 µM		> 100 µM		> 100 µM
CC(C)(C)OC(=O)n1cc(CNC(=S)Nc2ccccc2)c2ccccc21	7 µM	35.4 µM	8.94 µM	25.7 µM	27.6 µM	> 100 µM	9.36 µM	22 µM	> 100 µM	> 100 µM	11.7 µM	27.7 µM	16.3 µM	37.6 µM	10.5 µM	23 µM	64.4 µM	> 100 µM	26.5 µM	> 100 µM
C=C1C(O)C2CCC(C)(C)C(=O)C2=C(CC(C)C)C12CC2 (centres undefined)	84.9 µM	> 100 µM	15 µM	70.3 µM	> 100 µM	> 100 µM	32.8 µM	> 100 µM	36.6 µM	> 100 µM	34.7 µM	> 100 µM	> 100 µM	> 100 µM	33.2 µM	> 100 µM	93.1 µM	> 100 µM	66.1 µM	> 100 µM
N#Cc1c(NC(=O)c2cccc(C(F)(F)F)c2)sc2c1CCC(=O)C2	3.3 µM	> 100 µM	1.02 µM	3.06 µM	0.582 µM	2.09 µM	1.19 µM		0.315 µM	1.65 µM	0.418 µM	1.52 µM	1.14 µM	3.97 µM	0.292 µM	1.41 µM	1.19 µM	3.13 µM	0.355 µM	1.38 µM
C=C1C(=O)O[C@H]2[C@H]1CC/C(CNC(=O)c1c[nH]c3ccc(F)cc13)=C\CC[C@@]1(C)O[C@@H]21	1.09 µM	2.35 µM	1.54 µM	4.17 µM	1.63 µM	5.47 µM	3.43 µM	14.8 µM	0.282 µM	1.31 µM	0.486 µM	1.77 µM	1.9 µM	4.82 µM	2.91 µM	12.1 µM	1.81 µM	16.2 µM	1.14 µM	2.48 µM
Brc1cccc(-c2cc(-c3ccc4c(c3)OCCO4)[nH]n2)c1	1.98 µM	27 µM	4.31 µM	32.9 µM	1.31 µM	30.2 µM	0.877 µM	6.07 µM	0.755 µM	34.8 µM	0.718 µM	2.27 µM	3.69 µM	35.4 µM	1.44 µM	41.4 µM	0.531 µM	6.58 µM	4.24 µM	36.6 µM
COC1(C(=O)N2Cc3nc(Cl)nc(N[C@H](C)c4cc(N)cc(C(F)(F)F)c4)c3C2)CCOCC1	31.7 µM	> 100 µM	0.356 µM	21 µM	13.5 µM	43.8 µM	18.7 µM	40.9 µM	9.23 µM	55.2 µM	16.3 µM	49 µM	18.2 µM	58 µM	21.3 µM	> 91.8 µM	17.4 µM	62.9 µM	7.63 µM	43.3 µM
O=C(c1cccs1)c1c(C(F)(F)F)n([O-])c2ccccc2[n+]1=O	0.695 µM	1.34 µM	0.99 µM	2.28 µM	0.0603 µM	2.29 µM	0.234 µM	0.597 µM	0.125 µM	1.54 µM	0.744 µM	1.67 µM	1.04 µM	2.49 µM	0.448 µM	2.24 µM	2.94 µM	9.05 µM	0.0775 µM	6.08 µM
C=CC(=O)N[C@H]1C=C(C)c2c(-c3cnc4ccccc4c3)c3c(N)ncnc3n2C1	8.05 µM	> 100 µM	2.46 µM	15.7 µM	0.568 µM	12.2 µM	18.1 µM	72.8 µM	0.699 µM	20.4 µM	8.27 µM	52.2 µM	21.2 µM	93.3 µM	22.7 µM	> 100 µM	3.56 µM	30.5 µM	0.61 µM	11.5 µM
